From the Kinase Knowledgebase extract (Sharma et al. 2016)

Molecular target: PIK3CB;PIK3CG;PIK3CD;PIK3CA (human) (UniProt P48736)
Experiment: Enzyme Assay

Row | SMILES | IC50 [nM]
1 | Cc1ccccc1-c1ccc(-n2nc(C(=O)N3CCOCC3)c3c2-c2ccccc2S(=O)(=O)C3)cc1 | 6470
2 | O=C(c1nn(-c2ccccc2F)c2c1CS(=O)(=O)c1ccccc1-2)N1CCOCC1 | 2000
3 | O=C(c1nn(-c2ccc(CN3CCC(O)C3)cc2)c2c1CS(=O)(=O)c1ccccc1-2)N1CCOCC1 (configuration not stated) | 859
4 | COc1ccc(-n2nc(C(=O)N3CCOCC3)c3c2-c2ccccc2S(=O)(=O)C3)cc1 | 749
5 | O=C(c1nn(C2CCCN(C3CCOCC3)C2)c2c1CS(=O)(=O)c1ccccc1-2)N1CCOCC1 (configuration not stated) | 254
6 | O=C(c1nn(-c2ccccc2Br)c2c1CS(=O)(=O)c1ccccc1-2)N1CCOCC1 | 5500
7 | O=C(c1nn(C2CCCN(Cc3ccccc3)C2)c2c1CS(=O)(=O)c1ccccc1-2)N1CCOCC1 (configuration not stated) | 540
8 | CS(=O)(=O)NCc1ccc(-n2nc(C(=O)N3CCOCC3)c3c2-c2ccccc2S(=O)(=O)C3)cc1 | 421
9 | CN(C)S(=O)(=O)c1cccc(-n2nc(C(=O)N3CCOCC3)c3c2-c2ccccc2S(=O)(=O)C3)c1 | 641
10 | COC1CCN(Cc2cccc(-n3nc(C(=O)N4CCOCC4)c4c3-c3ccccc3S(=O)(=O)C4)c2)C1 (configuration not stated) | 350
11 | CC(C)Cn1nc(C(=O)N2CCOCC2)c2c1-c1ccccc1S(=O)(=O)C2 | 960
12 | O=C(c1nn(-c2ccc(CN3CCCC3)cc2)c2c1CS(=O)(=O)c1ccccc1-2)N1CCOCC1 | 285
13 | O=C(c1nn([C@H]2CCCNC2)c2c1CS(=O)(=O)c1ccccc1-2)N1CCOCC1 | 1060
14 | COCCN1CCC(n2nc(C(=O)N3CCOCC3)c3c2-c2ccccc2S(=O)(=O)C3)C1 (configuration not stated) | 1480
15 | Cc1nnc(-c2cccc(-n3nc(C(=O)N4CCOCC4)c4c3-c3ccccc3S(=O)(=O)C4)c2)o1 | 1200
16 | Nc1ccc2c(c1)S(=O)(=O)Cc1c(C(=O)N3CCOCC3)nn(-c3ccccc3)c1-2 | 1130
17 | Cn1nc(C(=O)N2CCOCC2)c2c1-c1cccc(Br)c1S(=O)(=O)C2 | 1090
18 | O=C(c1nn(-c2ccc(CN3CCOCC3)nc2)c2c1CS(=O)(=O)c1ccccc1-2)N1CCOCC1 | 614
19 | O=C(c1nn(C2CCOC2)c2c1CS(=O)(=O)c1ccccc1-2)N1CCOCC1 (configuration not stated) | 890
20 | O=C(c1nn(C2CCOC2)c2c1CS(=O)(=O)c1c(F)cccc1-2)N1CCOCC1 (configuration not stated) | 353

Row | SMILES | IC50 [nM]
21 | O=C(c1nn(-c2cccc(Cn3ccnc3)c2)c2c1CS(=O)(=O)c1ccccc1-2)N1CCOCC1 | 673
22 | Cn1nc(C(=O)N2CCOCC2)c2c1-c1ccccc1S(=O)(=O)C2 | 1750
23 | O=C(c1ccc2c(c1)-c1c(c(C(=O)N3CCOCC3)nn1-c1ccccc1)CS2(=O)=O)N1CCCCC1 | 3410
24 | O=C(c1nn(-c2ccccc2)c2c1CS(=O)(=O)c1ccsc1-2)N1CCOCC1 | 643
25 | O=C(c1nn(-c2cccc(-c3nccs3)c2)c2c1CS(=O)(=O)c1ccccc1-2)N1CCOCC1 | 4220
26 | CC1CN(C(=O)c2nn(-c3ccccc3)c3c2CS(=O)(=O)c2ccccc2-3)CCO1 (configuration not stated) | 2160
27 | O=C(c1nn([C@@H]2CCCN(CCN3CCOCC3)C2)c2c1CS(=O)(=O)c1c(Cl)cccc1-2)N1CCOCC1 | 5230
28 | COc1ccc2c(c1)S(=O)(=O)Cc1c(C(=O)N3CCOCC3)nn(-c3ccccc3)c1-2 | 349
29 | COC(=O)c1ccc(Cn2nc(C(=O)N3CCOCC3)c3c2-c2ccccc2S(=O)(=O)C3)o1 | 431
30 | Cc1ccccc1-c1cccc(-n2nc(C(=O)N3CCOCC3)c3c2-c2ccccc2S(=O)(=O)C3)c1 | 1080
31 | CC(C)(C)C1CCC(n2nc(C(=O)N3CCOCC3)c3c2-c2ccccc2S(=O)(=O)C3)CC1 (configuration not stated) | 4120
32 | O=C(c1nn(CC2CCOCC2)c2c1CS(=O)(=O)c1ccccc1-2)N1CCOCC1 | 789
33 | O=C(c1ccoc1)N1CCC[C@H](n2nc(C(=O)N3CCOCC3)c3c2-c2ccccc2S(=O)(=O)C3)C1 | 750
34 | O=C(c1nn(-c2cccc(N3CCOCC3)c2)c2c1CS(=O)(=O)c1ccccc1-2)N1CCOCC1 | 673
35 | Cc1nc2ccc(-n3nc(C(=O)N4CCOCC4)c4c3-c3ccccc3S(=O)(=O)C4)cc2s1 | 662
36 | CN1CCCC(n2nc(C(=O)N3CCOCC3)c3c2-c2ccccc2S(=O)(=O)C3)C1 (configuration not stated) | 772
37 | COC1CN(Cc2cccc(-n3nc(C(=O)N4CCOCC4)c4c3-c3ccccc3S(=O)(=O)C4)c2)C1 | 277
38 | CC1(C)CCCC(n2nc(C(=O)N3CCOCC3)c3c2-c2ccccc2S(=O)(=O)C3)C1 (configuration not stated) | 498
39 | NCc1ccc(-n2nc(C(=O)N3CCOCC3)c3c2-c2ccccc2S(=O)(=O)C3)cc1 | 349
40 | CS(=O)(=O)Nc1ccc2c(c1)-c1c(c(C(=O)N3CCOCC3)nn1-c1ccccc1)CS2(=O)=O | 1310

Row | SMILES | IC50 [nM]
41 | CN(C)c1cccc(-n2nc(C(=O)N3CCOCC3)c3c2-c2ccccc2S(=O)(=O)C3)c1 | 4720
42 | CN(C)CCn1nc(C(=O)N2CCOCC2)c2c1-c1ccccc1S(=O)(=O)C2 | 1500
43 | COc1cccc(-n2nc(C(=O)N3CCOCC3)c3c2-c2ccccc2S(=O)(=O)C3)c1 | 1320
44 | CN1CCN(C(=O)c2cccc(-n3nc(C(=O)N4CCOCC4)c4c3-c3ccccc3S(=O)(=O)C4)c2)CC1 | 253
45 | O=C(Nc1cccc(-n2nc(C(=O)N3CCOCC3)c3c2-c2ccccc2S(=O)(=O)C3)c1)N1CCOCC1 | 3590
46 | COC1CCN(C(=O)c2cccc(-n3nc(C(=O)N4CCOCC4)c4c3-c3ccccc3S(=O)(=O)C4)c2)CC1 | 302
47 | O=C(c1nn(-c2ccccc2Cl)c2c1CS(=O)(=O)c1ccccc1-2)N1CCOCC1 | 4020
48 | O=C(c1cccc(-n2nc(C(=O)N3CCOCC3)c3c2-c2ccccc2S(=O)(=O)C3)c1)N1CCC(O)CC1 | 371
49 | Cc1ccncc1-n1nc(C(=O)N2CCOCC2)c2c1-c1ccccc1S(=O)(=O)C2 | 4040
50 | COCc1cccc(-n2nc(C(=O)N3CCOCC3)c3c2-c2ccccc2S(=O)(=O)C3)c1 | 997
51 | CN1CCC(Cn2nc(C(=O)N3CCOCC3)c3c2-c2ccccc2S(=O)(=O)C3)CC1 | 2650
52 | O=C(c1nn(-c2ccccc2)c2c1NS(=O)(=O)c1ccccc1-2)N1CCOCC1 | 5500
53 | CS(=O)(=O)C1CCN(Cc2cccc(-n3nc(C(=O)N4CCOCC4)c4c3-c3ccccc3S(=O)(=O)C4)c2)C1 (configuration not stated) | 464
54 | O=C(c1nn([C@H]2CCCN(CCn3ccnc3)C2)c2c1CS(=O)(=O)c1ccccc1-2)N1CCOCC1 | 5600
55 | CC(=O)Nc1nc2c(s1)S(=O)(=O)Cc1c(C(=O)N3CCOCC3)nn(C3CCOCC3)c1-2 | 284
56 | CN(C)C(=O)c1ccc2c(c1)-c1c(c(C(=O)N3CCOCC3)nn1-c1ccccc1)CS2(=O)=O | 3730
57 | CCCn1nc(C(=O)N2CCOCC2)c2c1-c1ccccc1S(=O)(=O)C2 | 641
58 | O=C(c1nn([C@@H]2CCCN(CCC3CCOCC3)C2)c2c1CS(=O)(=O)c1c(F)cccc1-2)N1CCOCC1 | 1920
59 | CN1c2c(C(=O)N3CCOCC3)nn(-c3ccccc3)c2-c2ccccc2S1(=O)=O | 3460

Other lines, results leading:

Row | IC50 [nM] | SMILES
60 | 247 | O=C(c1nn(-c2ccc(CN3CCC(F)CC3)cc2)c2c1CS(=O)(=O)c1ccccc1-2)N1CCOCC1
61 | 25 | COC1CCN(CCN2CCC[C@H](n3nc(C(=O)N4CCOCC4)c4c3-c3ccccc3S(=O)(=O)C4)C2)C1 (some centres not stated)
62 | 48 | O=C(c1nn([C@H]2CCCN(c3cccnc3)C2)c2c1CS(=O)(=O)c1ccccc1-2)N1CCOCC1
63 | 62 | COc1cccc2c1S(=O)(=O)Cc1c(C(=O)N3CCOCC3)nn([C@H]3CCCN(CCN4CC(F)C4)C3)c1-2
64 | 15 | COc1ccc2c(c1)S(=O)(=O)Cc1c(C(=O)N3CCOCC3)nn([C@H]3CCCN(CCN4CC(F)(F)C4)C3)c1-2
65 | 31 | COCCN1CCC[C@H](n2nc(C(=O)N3CCOCC3)c3c2-c2cccc(F)c2S(=O)(=O)C3)C1
66 | 38 | O=C(c1nn(C2CCCN(CCC3CCOCC3)C2)c2c1CS(=O)(=O)c1c(Cl)cccc1-2)N1CCOCC1 (configuration not stated)
67 | 34 | O=C(c1nn([C@H]2CCCN(CCC3CCOCC3)C2)c2c1CS(=O)(=O)c1ccccc1-2)N1CCOCC1
68 | 28 | COc1ccc2c(c1)-c1c(c(C(=O)N3CCOCC3)nn1[C@H]1CCCN(CCN3CCOCC3)C1)CS2(=O)=O
69 | 170 | O=C(c1nn(-c2ccc(CN3CCOCC3)cc2)c2c1CS(=O)(=O)c1ccccc1-2)N1CCOCC1
70 | 34 | O=C(c1nn(C2CCCN(CCN3CCC(F)CC3)C2)c2c1CS(=O)(=O)c1ccccc1-2)N1CCOCC1 (configuration not stated)
71 | 16 | O=C(c1nn([C@H]2CCCN(CCN3CCOCC3)C2)c2c1CS(=O)(=O)c1ccccc1-2)N1CCOCC1
72 | 13 | O=C(c1nn([C@H]2CCCN(CC3CCOCC3)C2)c2c1CS(=O)(=O)c1ncccc1-2)N1CCOCC1
73 | 21 | O=C(c1nn(C2CCN(CCC3CCOCC3)C2)c2c1CS(=O)(=O)c1c(F)cccc1-2)N1CCOCC1 (configuration not stated)
74 | 93 | COCCN1CCC[C@H](n2nc(C(=O)N3CCOCC3)c3c2-c2ccc(OC)cc2S(=O)(=O)C3)C1
75 | 156 | O=C(c1nn(C2CCN(CCN3CC(F)(F)C3)C2)c2c1CS(=O)(=O)c1ccccc1-2)N1CCOCC1 (configuration not stated)
76 | 179 | O=C(c1nn(-c2cccc(OCCn3ccnc3)c2)c2c1CS(=O)(=O)c1ccccc1-2)N1CCOCC1
77 | 164 | COCCNCc1ccc(-n2nc(C(=O)N3CCOCC3)c3c2-c2ccccc2S(=O)(=O)C3)cc1
78 | 110 | O=C(c1nn(-c2ccc(CN3CCCCC3)cc2)c2c1CS(=O)(=O)c1ccccc1-2)N1CCOCC1
79 | 18 | CN1CCCC(N2CCC[C@H](n3nc(C(=O)N4CCOCC4)c4c3-c3ccccc3S(=O)(=O)C4)C2)C1 (some centres not stated)
80 | 128 | COCCN1CCC[C@H](n2nc(C(=O)N3CCOCC3)c3c2-c2cccc(OC)c2S(=O)(=O)C3)C1
81 | 95 | O=C(c1nn(C2CN(CCC3CCOCC3)C2)c2c1CS(=O)(=O)c1ccccc1-2)N1CCOCC1
82 | 29 | O=C(c1nn(C2CCN(C3CCOCC3)C2)c2c1CS(=O)(=O)c1c(F)cccc1-2)N1CCOCC1 (configuration not stated)
83 | 16 | O=C(c1nn([C@H]2CCCN(CCN3CCOCC3)C2)c2c1CS(=O)(=O)c1c(F)cccc1-2)N1CCOCC1
84 | 22 | O=C(c1nn([C@H]2CCCN(CCN3CC(F)(F)C3)C2)c2c1CS(=O)(=O)c1c(F)cccc1-2)N1CCOCC1
85 | 20 | COC1CN(CCN2CCC[C@H](n3nc(C(=O)N4CCOCC4)c4c3-c3ccccc3S(=O)(=O)C4)C2)C1
86 | 105 | CC1CN(Cc2ccc(-n3nc(C(=O)N4CCOCC4)c4c3-c3ccccc3S(=O)(=O)C4)cc2)CCO1 (configuration not stated)
87 | 98 | O=C(c1nn(C2CCCN(CC3CCOC3)C2)c2c1CS(=O)(=O)c1ccccc1-2)N1CCOCC1 (configuration not stated)
